Measurements as given in ChEMBL document CHEMBL4665541, “Search for new therapeutic options for the uncommon pathogen Mycobacterium chimaera: an open drug discovery approach” (Lancet Microbe, 2021).

Experiments:
Format in all cases: functional, organism-based
Set-up in all cases: conc 20 uM
[1] = test system: Mycobacterium tuberculosis; assay: (§1) Inhibition of mycobacterial growth using the resazurin microtitre cell viability assay (REMA), compounds at final concentration of 20 µM (2% v/v DMSO). Hits were classed as compounds that inhibited bacterial growth by 70% or more compared to drug-free controls.; conditions: H37Rv
[2] = test system: Mycobacterium intracellulare subsp. chimaera; assay: as §1; conditions: NCTC13781
[3] = test system: Mycobacteroides abscessus; assay: as §1; conditions: ATCC19977

Row | Substance | Survival [1] [%] | Survival [2] [%] | Survival [3] [%]
1 | MMV688846 | 69.2 | 112 | 20.9
2 | MMV688327 | 7.39 | -1.9 | 18.6
3 | MMV688795 | 77.7 | 105 | 105
4 | MMV688703 | 102 | 103 | 108
5 | MMV688364 | 82.7 | 89.9 | 111
6 | MMV099637 | 109 | 95.3 | 98.4
7 | MMV688362 | 103 | 90.2 | 109
8 | MMV032967 | 92.6 | 87.8 | 104
9 | MMV661713 | 25.2 | 47.5 | 112
10 | MMV688761 | 108 | 108 | 113
11 | MMV026490 | 88.9 | 104 | 115
12 | MMV006833 | 93.7 | 115 | 126
13 | MMV689244 | 90.1 | 107 | 115
14 | MMV676536 | 90.9 | 101 | 119
15 | MMV688852 | 107 | 103 | 115
16 | MMV676064 | 96.8 | 102 | 117
17 | MMV020120 | 94.3 | 104 | 122
18 | MMV676053 | 89.4 | 105 | 97.1
19 | MMV676584 | 66.8 | 90.2 | 115
20 | MMV026550 | 88.2 | 98.7 | 111
21 | MMV019993 | 97 | 98.9 | 95.9
22 | MMV019234 | 78.1 | 92.9 | 125

Row | Substance | Survival [1] [%] | Survival [2] [%] | Survival [3] [%]
23 | MMV675995 | 90.8 | 97.4 | 111
24 | MMV676501 | 14 | 91.8 | 104
25 | MMV688410 | 95.3 | 105 | 105
26 | MMV085071 | 93.5 | 86.4 | 110
27 | MMV085499 | 90.8 | 112 | 106
28 | MMV007920 | 98 | 99.7 | 102
29 | MMV687807 | 4.61 | 82.9 | 103
30 | MMV663250 | 95.4 | 116 | 104
31 | MMV676008 | 99.7 | 116 | 123
32 | MMV688415 | 88.9 | 97.2 | 101
33 | MMV228911 | 114 | 89.5 | 97.2
34 | MMV407834 | 97 | 114 | 113
35 | MMV676554 | 29.4 | 41.2 | 109
36 | MMV000023 | 84.7 | 92.8 | 109
37 | MMV687729 | 13.1 | 30.5 | 112
38 | MMV676558 | 90.9 | 100 | 110
39 | MMV688274 | 86 | 112 | 113
40 | MMV688467 | 95.5 | 111 | 118
41 | MMV675997 | 99.4 | 98.5 | 105
42 | MMV020623 | 107 | 111 | 118
43 | MMV676382 | 88.4 | 99 | 122
44 | MMV688943 | 89.7 | 100 | 112
